This note sets out measurements from patent US20120214842A1, “METHODS FOR TREATING DISEASES OF THE RETINA” (priority 2011, published 2012).

This series concerns ABCA4/RDH8 mouse model. Nature of the series: Light-induced retinal degeneration in ABCA4/RDH8 mouse model (ERG, retinal histology, SLO autofluorescence). The series is classed as in vivo. The settings on record: 10 mg/kg twice daily IP, 10,000 lux light for 30 min on day 3. On the procedure: The invention is illustrated by the following example. The compound of the invention was tested with the following experimental protocol: (1) Mice are dosed twice daily at 10 mg/kg or vehicle, IP. (2) On day 3, mice are exposed to 10,000 lux light for 30 min, 2 h after the first dosing and 6 h before the last dosing. (3) On day 11 ERG measurements are taken. (4) On day 12, mice are sacrificed for retinal histology. The ERG functional assay measures the functional integrity of retina. […] In the model, autofluorescence appears as the retina degenerates.

Consider `Cn1cc(-c2ccncc2)c(-c2ccc(OCc3ccc4ccccc4n3)cc2)n1` [MP-10, 2-[4-(1-methyl-4-pyridin-4-yl-1H-pyrazol-3-yl)-phenoxymethyl]-quinoline], for which the “loss of ERG function (functional integrity of retina)” value (ERG on day 11, vs vehicle, FIG. 1) was “prevents loss of ERG function”. Moreover, the “autofluorescence in retina measured by SLO” value (FIG. 3) is listed as “reduces the appearance of autofluorescence”. For the setting “histology on day 12, FIG. 2”, the “photoreceptor cell loss (retinal histology grade; higher grade indicates more loss)” value is recorded as “protects photoreceptor cell loss”.
